Test results from publication PMC9313812, “The Pseudo‐Natural Product Rhonin Targets RHOGDI” (Angewandte Chemie (International Ed. in English), 2022).
“Also recorded” adds a separate entry of the source. Where two headings read alike, the source gives them in different places.

Tests used:
C3H/10T1/2 cells = assay: Osteoblast differentiation assay (ODA): purmorphamine-induced osteogenesis, alkaline phosphatase luminescence readout; format: cell-based, mouse; design: key to Osteogenesis IC50: Compounds are marked inactive when no inhibition was observed at the highest test concentration of 30 µM; conditions: for Inhibition of Hh-/purmorphamine-induced osteogenesis (in words): C3H/10T1/2 cells; for IC50: Mus musculus, C3H 10T1/2
Procedure: Supplementary Table S7. Inhibition of osteogenesis assay. C3H10T1/2 cells were incubated with 1.5 µM purmorphamine and compounds or DMSO as a control for 96 h. The activity of alkaline phosphatase was assessed by means of a luminescence readout. Values for cells, which were treated with DMSO and purmorphamine, were set to 100% and data were measured in […]
concentration of 30 µM. All data are mean values of three independent experiments (n = 3) ± […]
Compound Osteogenesis IC50
(1 picture or pasted object on this page, not shown here)
NIH/3T3 cells were obtained from DSMZ, Germany (DSMZ ACC 59) and were cultured in DMEM (high glucose) supplemented with 10% heat-inactivated FCS, 2 mM L -glutamine and 1 mM sodium pyruvate. Shh -LIGHT2 cells (NIH/3T3 cells stably transfected with a Gli-responsive firefly luciferase reporter plasmid and a pRL-TK constituitive Renilla luciferase expression vector)[4] were cultured in the same culturing medium supplemented with 400 μg ml −1 G418 and 150 μg ml −1 Zeocin as selecting agents. The murine osteoblasts C3H/10T1/2 (ATCC CCL-226) were obtained from ATCC, USA and were cultured in DMEM (high glucose) supplemented with 10% heat-inactivated FCS, 6 mM L -glutamine, 1 mM sodium pyruvate. HEK293T cells (ATCC, England) were grown in DMEM containing 10% FBS, 100 U ml −1 penicillin and 0.1 mg ml −1 streptomycin. All cell lines were maintained at 37 °C and 5% CO 2 in a humidified atmosphere. All the cell lines were regularly assayed for mycoplasma and were confirmed to be mycoplasma-free. Transfection of DNA constructs and siRNAs were performed using FuGENE HD (Promega), Lipofectamine® LTX (Invitrogen) and DharmaFECT™ (GE Healthcare) transfection reagent according to the manufacturer’s […]
Osteoblast differentiation assay
The osteoblast differentiation assay was performed by the Compound Management and Screening Center (COMAS) in Dortmund, Germany. C3H/10T1/2 cells were seeded (800 per well) in white 384-well plates or (6000 per well) in 96-well plates. After incubation for 16 h, compounds or DMSO were added to the cells using the acoustic nanoliter dispenser ECHO 520 (Labcyte) and osteogenesis was induced with 1.5 µM purmorphamine. Plates were incubated for 96 h at 37 °C and 5% CO2. Alkaline phosphatase activity was measured by replacing the medium with osteogenesis-lysis buffer (lysis buffer: 100 mM Tris pH 9.5, 250 mM NaCl, 25 mM MgCl2, 1% Triton X-100, sterile filtered) containing 1:100 chemiluminescent substrate CDP-Star® (Promega, 384-well plates: 35 µL, 96-well plates: 50 µL) for one hour in the dark at 25 °C. In 384-well plates, the luminescence was monitored using the Paradigm plate reader (Molecular Devices, USA), whereas Spark plate reader (Tecan, Austria) was used to measure luminescence in 96-well plates. Dose-response analyses were performed for all hit compounds […]
using a three-fold dilution series starting from a concentration of 30 μM. Half-maximal inhibitory concentrations (IC50) were calculated using the Quattro software suite (Quattro Research, Planegg, Germany) or GraphPad Prism 7 (GraphPad, USA).
The effect of test compounds on the viability of C3H/10T1/2 cells was determined by CellTiter-Glo Luminescence cell viability assay (Promega). Cells were treated as described for the osteogenesis assay prior to addition of the CellTiter-Glo® reagent according to manufacturer’s protocol. Compounds causing at least a 50% reduction in the osteogenesis assay and retaining cell viability of at least 80% were considered as hits. Dose-response analyses were performed for all hit compounds using a three-fold dilution series starting from a concentration of 30 μM. Half-maximal inhibitory concentrations (IC50) were calculated using the Quattro software suite (Quattro Research GmbH). […]

[1] = molecular target: T1, RHOGDI1-mediated extraction of RAC1 (Homo sapiens, UniProt P52565); assay: Liposome sedimentation assay: displacement of prenylated GDP-bound RAC1 from liposomes by GST-RHOGDI1; format: biochemical; conditions: 50 μM compound
T1 construct: made in house; host or cells: RHOGDI1: E. coli; prenylated RAC1: insect cells (TNAO38)
T1 sequence (P52565 1-204): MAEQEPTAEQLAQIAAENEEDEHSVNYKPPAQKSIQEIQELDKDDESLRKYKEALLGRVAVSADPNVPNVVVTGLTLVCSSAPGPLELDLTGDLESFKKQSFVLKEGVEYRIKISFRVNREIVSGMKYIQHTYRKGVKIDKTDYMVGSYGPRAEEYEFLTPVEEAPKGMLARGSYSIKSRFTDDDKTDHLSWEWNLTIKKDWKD
Procedure: Liposome sedimentation assay
Liposomes were prepared by self-assembly of the lipids (500 μg) containing 20% (w/w) phosphatidylethanolamine, 45% (w/w) phosphatidylcholine, 20% (w/w) phosphatidylserine, 10% (w/w) cholesterol, and 5% (w/w) phosphatidylinositol 4,5-bisphosphate. Liposome assays were performed by mixing, sonicating (20 s with minimal power, 50% off and 50% on) and extruding ([…] filter) the lipids in 300 µl of a buffer, containing 20 mM HEPES-NaOH pH 7.4, 50 mM NaCl, 3 mM DTT, 5 mM MgCl2. 1 µM GerGer-RAC1-GDP was added to the liposomes and incubated for 20 min on ice. 1.5 µM GST‐RHOGDI-1 and the compounds or DMSO were added to the liposome-GerGer-RAC1-GDP complex prior to incubation on ice for 30 min. The samples were centrifuged at 20,000 x g for 30 min at 4 °C. The resulting pellet and supernatant fractions were collected and analyzed by immunoblotting. 10 µl of each sample were loaded on a SDS-PAGE gel for Western blotting. Specific antibodies were used to visualize RAC1, CDC42 and RHOA.
10 µM of GerGer-RAC1-GDP was added to liposomes suspended in flotation assay buffer containing 20 mM HEPES-NaOH pH 7.4, 50 mM M NaCl, 3 mM DTT, 5 mM MgCl2, and incubated for 20 min on ice. The liposomes were prepared by using self-assembling the lipids (500 μg lipids in 300 µl buffer), containing 15% (w/w) phosphatidylethanolamine, 0.5% (w/w) NBD-PE (N-(7-nitrobenz-2-oxa-1,3-diazol-4-yl)-1,2-dihexadecanoyl-sn-glycero-3-phosphoethanolamine, triethylammonium salt), 45% (w/w) phosphatidylcholine, 20% (w/w) phosphatidylserine, 10% (w/w)cholesterol, and 5% (w/w) phosphatidylinositol 4,5-bisphosphate. 15 µM of GST‐RHOGDI-1 and compounds or DMSO was added to liposome-GerGer-RAC1-GDP complex and samples were further incubated on ice for 30 min. The samples were added to 30% (w/v) sucrose solution. […]
The resulting samples were centrifuged at 140000 x g for 1 h at 4 °C. The upper liposome‐ containing phase (detected by fluorescent NDB‐PE) was collected and analyzed by […]

[2] = Table S9, purmorphamine-induced, mean, n=3 ± SD, read-out: ODA IC50 ± SD

| Inhibition of RHOGDI1-mediated extraction of RAC1 from liposomes (in words) [1] | IC50 (C3H/10T1/2 cells; Table S7, 1.5 µM purmorphamine, 96 h, mean ± SD, n=3, highest test concentration 30 µM, read-out: Osteogenesis IC50) | Osteogenesis IC50 (C3H/10T1/2 cells; Table S7, 1.5 µM purmorphamine, 96 h, mean ± SD, n=3, highest test concentration 30 µM) | Structure (SMILES) | Inhibition of Hh-/purmorphamine-induced osteogenesis (in words) (C3H/10T1/2 cells) | IC50 (C3H/10T1/2 cells; [2]) |
| --- | --- | --- | --- | --- | --- |
| inhibits the extraction of RAC1 | 1500 ± 200 nM | – | COC(=O)C1(C(CC(=O)c2ccccc2)c2ccccc2)N=C(c2ccc(Br)cc2)C2C(=O)N(C)C(=O)C21 (stereo not drawn) [7a] | – | 1300 ± 300 nM |
| did not inhibit extraction of RAC1 | – | inactive | COC(=O)C1(CCC(=O)c2ccc(F)cc2)N=C(c2ccc(Br)cc2)C2C(=O)N(C)C(=O)C21 (stereo not drawn) [7d] | abolished activity; also recorded: did not inhibit osteogenesis | – |

| Structure (SMILES) | Inhibition of RHOGDI1-mediated extraction of RAC1 from liposomes (in words) [1] | IC50 (C3H/10T1/2 cells; Table S7, 1.5 µM purmorphamine, 96 h, mean ± SD, n=3, highest test concentration 30 µM, read-out: Osteogenesis IC50) | Osteogenesis IC50 (C3H/10T1/2 cells; Table S7, 1.5 µM purmorphamine, 96 h, mean ± SD, n=3, highest test concentration 30 µM) | Inhibition of Hh-/purmorphamine-induced osteogenesis (in words) (C3H/10T1/2 cells) | IC50 (C3H/10T1/2 cells; [2]) |
| --- | --- | --- | --- | --- | --- |
| COC(=O)C1(C(CC(=O)c2cccnc2)c2ccccc2)N=C(c2ccc(Br)cc2)C2C(=O)N(C)C(=O)C21 (stereo not drawn) [7l] | inhibited | – | – | most potently inhibited | 1520 ± 220 nM |
